What was measured:
[1] = biological target: T1, Bromodomain-containing protein 4 (Homo sapiens, UniProt O60885); assay: Inhibition of N-terminal GST-tagged/C-terminal 6His-tagged BRD4 BD1 (47 to 170 residues) (unknown origin) expressed in Escherichia coli BL21 (DE3) using SGRGK(Ac)GGK(Ac)GLGK(Ac) GGAK(Ac)RHRK-biotinylated peptide as substrate incubated for 60 mins by alpha screen assay
[2] = biological target: T1, Bromodomain-containing protein 4; assay: Inhibition of BRD4 BD2 (unknown origin) using SGRGK(Ac)GGK(Ac)GLGK(Ac) GGAK(Ac)RHRK-biotinylated peptide as substrate incubated for 60 mins by alpha screen assay

| Structure (SMILES) | IC50 [1] [µM] | IC50 [2] [µM] |
| --- | --- | --- |
| CN(C)S(=O)(=O)Nc1ccc(NCC(c2ccccc2)c2ccccc2)nc1Nc1ccc2[nH]nnc2c1 | 8.83 | – |
| CC(C)Nc1ccc([N+](=O)[O-])c(Nc2ccc3c(c2)nnn3C(=O)Nc2ccccc2)n1 | 5.13 | 5.84 |
| CN(C)S(=O)(=O)Nc1ccc(N2CCOCC2)nc1Nc1ccc2[nH]nnc2c1 | 4.6 | 5.82 |
| CN(C)S(=O)(=O)Nc1ccc(NCc2ccc3c(c2)OCO3)nc1Nc1ccc2[nH]nnc2c1 | 7.7 | – |
| CC(C)Nc1ccc([N+](=O)[O-])c(Nc2ccc3[nH]nnc3c2)n1 | 9.8 | 10 |
| CN(C)S(=O)(=O)Nc1ccc(NCC(O)c2ccccc2)nc1Nc1ccc2[nH]nnc2c1 (stereo not given) | 5.59 | 5.11 |
| CN(C)S(=O)(=O)Nc1ccc(NCC2CCCO2)nc1Nc1ccc2[nH]nnc2c1 (stereo not given) | 9.6 | 8.42 |
| CN(C)S(=O)(=O)Nc1ccc(NCc2cccc3ccccc23)nc1Nc1ccc2[nH]nnc2c1 | 7.91 | – |
| CN(C)S(=O)(=O)Nc1ccc(NCc2ccc(F)cc2)nc1Nc1ccc2[nH]nnc2c1 | 5.24 | – |
| CN(C)S(=O)(=O)Nc1ccc(NCCO)nc1Nc1ccc2[nH]nnc2c1 | 5.7 | 8.25 |

Now those with a lower IC50 [1], led by results:

| IC50 [1] [µM] | IC50 [2] [µM] | Structure (SMILES) |
| --- | --- | --- |
| 2.23 | – | CN(C)S(=O)(=O)Nc1ccc(NCc2ccccc2)nc1Nc1ccc2[nH]nnc2c1 |
| 3.86 | 4.47 | CCS(=O)(=O)Nc1ccc(NC(C)C)nc1Nc1ccc2[nH]nnc2c1 |
| 0.51 | 0.64 | CC(C)Nc1ccc(NS(=O)(=O)c2ccccc2)c(Nc2ccc3[nH]nnc3c2)n1 |
| 3.62 | – | CN(C)S(=O)(=O)Nc1ccc(NCCc2c[nH]c3ccccc23)nc1Nc1ccc2[nH]nnc2c1 |
| 1.12 | 1.24 | CC(C)Nc1ccc(NS(=O)(=O)C(C)C)c(Nc2ccc3[nH]nnc3c2)n1 |
| 0.24 | 0.3 | CC(C)Nc1ccc(NS(=O)(=O)c2ccc(F)cc2)c(Nc2ccc3[nH]nnc3c2)n1 |
| 0.77 | 0.78 | CC(C)Nc1ccc(NS(=O)(=O)c2cccs2)c(Nc2ccc3[nH]nnc3c2)n1 |
| 1.18 | 1.06 | COC(=O)NS(=O)(=O)Nc1ccc(NC(C)C)nc1Nc1ccc2[nH]nnc2c1 |
| 4.45 | 5.63 | CN(C)S(=O)(=O)Nc1ccc(NCC2CC2)nc1Nc1ccc2[nH]nnc2c1 |
| 3.87 | 6.17 | CC(C)Nc1ccc([N+](=O)[O-])c(Nc2ccc3c(c2)nnn3S(=O)(=O)c2ccc(F)cc2)n1 |
| 3.98 | 12.3 | CC(C)Nc1ccc(NC(=O)c2ccccc2)c(Nc2ccc3[nH]nnc3c2)n1 |
| 0.8 | 0.72 | CC(C)Nc1ccc(NS(=O)(=O)c2ccc(F)cc2F)c(Nc2ccc3[nH]nnc3c2)n1 |
| 0.78 | 1.04 | CC(C)Nc1ccc(NS(=O)(=O)c2c(F)cccc2F)c(Nc2ccc3[nH]nnc3c2)n1 |
